Assay results taken from ChEMBL document CHEMBL1201862, “PubChem BioAssay data set” (2004).
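Tested at 5 concentrations; 48 h exposure; 96-well plates; endpoints linearly interpolated, else capped at highest concentration. GI50 is the concentration that inhibits growth by half.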 The source made the active and inactive calls. Cut-off read from the data, not from the text of the source: active = GI50 up to about 1.1 µM and inactive = higher.

Assays:
Assay in all cases: DTP human tumour cell line panel, 48 h
SW-620 = system: SW-620
Malme-3M = system: Malme-3M
OVCAR-8 = system: OVCAR-8
IGROV-1 = system: IGROV-1
NCI-H226 = system: NCI-H226
HL-60 = system: HL-60
OVCAR-4 = system: OVCAR-4
NCI-H460 = system: NCI-H460
SF-268 = system: SF-268
SK-MEL-2 = system: SK-MEL-2
HCC 2998 = system: HCC 2998
SNB-19 = system: SNB-19
RXF 393 = system: RXF 393
A498 = system: A498
SK-MEL-5 = system: SK-MEL-5

Measured: GI50

CCNC(=O)C(O)C1(O)CCC2[C@@H]3CCC4=CC(=O)C=C[C@]4(C)C3[C@@H](O)C[C@@]21C (some centres undefined)
inactive: SW-620 > 100 µM | Malme-3M > 100 µM | OVCAR-8 > 100 µM | IGROV-1 > 100 µM | NCI-H226 > 87.5 µM | HL-60 29.8 µM | OVCAR-4 > 100 µM | NCI-H460 > 100 µM | SF-268 > 49.4 µM | SK-MEL-2 > 100 µM | HCC 2998 > 100 µM | SNB-19 > 100 µM | RXF 393 > 100 µM

O=C(Nc1cc([N+](=O)[O-])cc([N+](=O)[O-])c1)OC1C2CCC1C1OC1C2 (centres undefined)
inactive: A498 > 50 µM | SW-620 > 50 µM | Malme-3M 22.9 µM | OVCAR-8 > 50 µM | IGROV-1 > 50 µM | HL-60 32.1 µM | OVCAR-4 > 50 µM | NCI-H460 > 50 µM | SK-MEL-5 31.3 µM | SF-268 33.7 µM | SK-MEL-2 > 50 µM | HCC 2998 > 50 µM | SNB-19 > 50 µM | RXF 393 > 50 µM

CN(C)CCSc1cccc(-c2cc(-c3cccc(SCCN(C)C)c3)nc(SCCN(C)C)n2)c1
inactive: SW-620 1.87 µM | Malme-3M 1.87 µM | OVCAR-8 1.42 µM | IGROV-1 3.37 µM | HL-60 1.85 µM | OVCAR-4 1.67 µM | NCI-H460 1.85 µM | SK-MEL-5 1.55 µM | SK-MEL-2 7.96 µM | HCC 2998 2.29 µM | RXF 393 1.35 µM

O=C(Cl)c1cc([N+](=O)[O-])cc([N+](=O)[O-])c1
inactive: SW-620 > 100 µM | Malme-3M > 100 µM | IGROV-1 > 100 µM | NCI-H226 > 100 µM | HL-60 > 100 µM | OVCAR-4 > 100 µM | NCI-H460 > 100 µM | SK-MEL-5 > 100 µM | SF-268 > 100 µM | SK-MEL-2 > 100 µM | HCC 2998 > 100 µM | SNB-19 > 100 µM

Cc1ccc(S(=O)(=O)OCOS(=O)(=O)c2ccc(C)cc2)cc1
inactive: SW-620 > 100 µM | Malme-3M > 100 µM | OVCAR-8 > 100 µM | IGROV-1 > 100 µM | HL-60 > 100 µM | NCI-H460 58.1 µM | SK-MEL-5 > 100 µM | SF-268 > 100 µM | SK-MEL-2 > 100 µM | HCC 2998 > 100 µM | SNB-19 > 100 µM | RXF 393 > 100 µM

O=C(c1ccccc1)[C@H]1Nc2ccc(Cl)cc2[C@H]2CCC[C@@H]12
inactive: SW-620 27.9 µM | Malme-3M 22 µM | OVCAR-8 23.3 µM | IGROV-1 > 100 µM | NCI-H226 13.6 µM | OVCAR-4 26.2 µM | NCI-H460 24.5 µM | SK-MEL-5 10.3 µM | SF-268 31.7 µM | SK-MEL-2 19.7 µM | HCC 2998 30.5 µM | SNB-19 > 100 µM | RXF 393 14.8 µM

S=P1(c2ccccc2)Nc2ccc(Cl)cc2N1 (centres undefined)
inactive: A498 > 100 µM | SW-620 > 100 µM | Malme-3M > 100 µM | IGROV-1 35.5 µM | NCI-H226 > 100 µM | HL-60 7.48 µM | OVCAR-4 6.49 µM | NCI-H460 > 100 µM | SK-MEL-5 > 100 µM | SF-268 > 100 µM | SK-MEL-2 > 100 µM | HCC 2998 > 100 µM | SNB-19 > 100 µM

COc1cccc(NC(=O)CC(=O)N2N=C(N3c4ccccc4Sc4ccccc43)CC2c2ccccc2)c1 (centres undefined)
inactive: A498 > 100 µM | SW-620 > 100 µM | Malme-3M > 100 µM | OVCAR-8 > 100 µM | IGROV-1 > 100 µM | NCI-H226 > 100 µM | OVCAR-4 > 100 µM | NCI-H460 > 100 µM | SK-MEL-5 > 100 µM | SF-268 > 100 µM | HCC 2998 > 100 µM | SNB-19 > 100 µM | RXF 393 > 100 µM

CCOC(=O)C(C)c1c(C(=O)c2ccc(C)nc2)c2ccccc2n1C (centres undefined)
inactive: SW-620 > 100 µM | Malme-3M > 100 µM | OVCAR-8 > 100 µM | IGROV-1 > 100 µM | HL-60 > 100 µM | OVCAR-4 > 100 µM | NCI-H460 > 100 µM | SK-MEL-5 > 100 µM | SF-268 > 100 µM | SK-MEL-2 82.8 µM | HCC 2998 > 100 µM | RXF 393 > 100 µM

O=C(O)C1=CCCc2ccc3ccccc3c21
inactive: A498 > 100 µM | SW-620 > 100 µM | Malme-3M > 100 µM | OVCAR-8 > 100 µM | IGROV-1 > 100 µM | NCI-H226 > 100 µM | OVCAR-4 > 100 µM | NCI-H460 > 100 µM | SF-268 > 100 µM | SK-MEL-2 > 100 µM | SNB-19 > 100 µM | RXF 393 > 100 µM

COc1ccccc1NC(=O)CC(=O)N1N=C(C)C(/N=N/c2ccc(S(N)(=O)=O)cc2)C1=O (centres undefined)
inactive: A498 > 100 µM | SW-620 > 100 µM | Malme-3M > 100 µM | OVCAR-8 > 100 µM | IGROV-1 > 100 µM | NCI-H226 > 100 µM | OVCAR-4 > 100 µM | NCI-H460 > 100 µM | SK-MEL-5 > 100 µM | SF-268 > 100 µM | SK-MEL-2 > 100 µM | HCC 2998 > 100 µM | SNB-19 > 100 µM | RXF 393 > 100 µM
